From patent US8227423B2 (priority 2004, dated 2012)
Ends that are not written are not given here.

Legend:
Bacillus subtilis = assay type: cell-based

Sequence	antibacterial effect in time kill assay (CFU) (Bacillus subtilis)	detergent-like (lytic) action (sheep red blood cells)
RFARKGALRQKNV [Protein kinase C]	no effect	
TRKKLFHIFHATIRSR [PAD-1.17, TRKKLFHIFHATIRSR]		did not appear to act as a detergent
